Test systems include A498; A549; ACHN; BT-549; HL-60; HOP-62; KM12; LOX IMVI; NCI-H226; NCI-H460; OVCAR-5; PC-3; RXF 393; SF-268; SK-OV-3; TK-10; K562; HOP-92; RPMI-8226.
Common to all, as to assay: NCI-60 cell line screen, 48 h

Molecules are shown by their SMILES.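 1) Cells in 96-well plates. 2) Compound, 48 h, 5 concentrations. 3) Linear interpolation between surrounding doses. 4) Unreached endpoint = highest concentration. Abbreviation: GI50, concentration required for 50% inhibition of growth.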 Activity calls are given as the source filed them. Rule as the data show it: active = GI50 up to about 1.1 µM and inactive = higher.

On to `CCOC(=O)C1(C/C=C/CCl)CCCC1=O` (stereo not given), for which the GI50 with A498 is 25.2 µM (inactive); in the assay on A549, 21.5 µM (inactive); with ACHN, 15.3 µM (inactive); in the assay on BT-549, 18.2 µM (inactive); in the assay on HL-60, 38.2 µM (inactive); with HOP-62 it was 20.5 µM (inactive). For the same compound, the GI50 was 20 µM (inactive) with KM12; 14.9 µM (inactive) in the assay with LOX IMVI; 14.3 µM (inactive) in the assay with NCI-H226; 30.1 µM (inactive) with NCI-H460; 17.8 µM (inactive) in the assay on OVCAR-5; 30.5 µM (inactive) with PC-3. The GI50 in the assay on RXF 393 was 16.8 µM (inactive); with SF-268 it was 25.4 µM (inactive); in the assay on SK-OV-3 it was 33.3 µM (inactive); in the assay with TK-10, 21.1 µM (inactive).
For the compound `COc1cc(CNc2nc3cc(C(F)(F)F)ccc3nc2C(=O)O)cc(OC)c1OC`, the GI50 in the assay on A498 is 24.2 µM (inactive); with A549, 21.4 µM (inactive); in the assay with ACHN it was 26.4 µM (inactive); with BT-549, 29.8 µM (inactive); in the assay with HL-60, 0.1 µM (active); in the assay with HOP-62, 18.5 µM (inactive). For the same compound, the GI50 in the assay with K562 is 28 µM (inactive); in the assay on KM12, 24.7 µM (inactive); in the assay on LOX IMVI, 31.4 µM (inactive); in the assay on NCI-H226, 60.7 µM (inactive); in the assay on NCI-H460, 25.4 µM (inactive); in the assay on OVCAR-5, 49.3 µM (inactive). For the same compound, the GI50 with PC-3 was 21.5 µM (inactive); in the assay on RXF 393, 23.8 µM (inactive); in the assay on SF-268, 27.7 µM (inactive); in the assay with SK-OV-3, 28.4 µM (inactive); in the assay on TK-10 it was 13.1 µM (inactive).
As to `Cc1cc(Br)c(O)c(-c2cscn2)c1`, the GI50 in the assay with A498 is 23.7 µM (inactive); in the assay with A549 it was 20.2 µM (inactive); in the assay on ACHN it was 14 µM (inactive); in the assay with BT-549, 10.9 µM (inactive); with HL-60, 3.66 µM (inactive); with HOP-62, 22.5 µM (inactive). Further, the GI50 is 19.5 µM (inactive) in the assay with HOP-92; 7.64 µM (inactive) in the assay on K562; 10.2 µM (inactive) in the assay with LOX IMVI; 21.4 µM (inactive) with NCI-H460; 20.6 µM (inactive) with OVCAR-5; 10.3 µM (inactive) with PC-3. The GI50 in the assay with RPMI-8226 is 4.81 µM (inactive); with SK-OV-3, 54.6 µM (inactive); in the assay with TK-10, 22.4 µM (inactive).
For `Cc1nc(Nc2ccccc2Cl)sc1C(=O)CC(=O)C(=O)Nc1c(Cl)cccc1Cl`, the GI50 with A549 is 24.9 µM (inactive); in the assay on ACHN, 45 µM (inactive); in the assay with BT-549, 24.2 µM (inactive); in the assay with HL-60, 8.95 µM (inactive); with HOP-62, 22.8 µM (inactive); in the assay with HOP-92, 20.6 µM (inactive). The GI50 in the assay with K562 was 41.8 µM (inactive); in the assay on KM12 it was 25.4 µM (inactive); in the assay on LOX IMVI, 27.4 µM (inactive); in the assay with NCI-H226, 17.5 µM (inactive); in the assay on NCI-H460, 34.5 µM (inactive); with OVCAR-5, 24.9 µM (inactive). In addition, the GI50 with PC-3 is 27.3 µM (inactive); in the assay with RPMI-8226, 28.2 µM (inactive); in the assay on RXF 393 it was 23.4 µM (inactive); with SF-268 it was 35.6 µM (inactive); in the assay with SK-OV-3 it was 29.1 µM (inactive); with TK-10 it was > 100 µM (inactive).
Regarding `O=C1NC(=S)N/C1=C/c1c(-c2ccccc2)[nH]c2ccccc12`, the GI50 with A498 is 11.4 µM (inactive); with ACHN, 17.4 µM (inactive); in the assay on BT-549, 12.6 µM (inactive); in the assay with HL-60, 7.31 µM (inactive); in the assay with HOP-62, 15.5 µM (inactive); in the assay on K562 it was 10.1 µM (inactive). The GI50 with KM12 was 14.6 µM (inactive); with LOX IMVI, 10.9 µM (inactive); in the assay on NCI-H226, 16.3 µM (inactive); in the assay on NCI-H460, 12.9 µM (inactive); in the assay on OVCAR-5, 17.9 µM (inactive); with PC-3 it was 12.9 µM (inactive). Further, the GI50 was 8.73 µM (inactive) in the assay with RPMI-8226, 15.3 µM (inactive) in the assay on RXF 393, 25.7 µM (inactive) in the assay with SF-268 and 15.8 µM (inactive) in the assay on TK-10.
Consider `O=C1/C(=C/c2ccc([N+](=O)[O-])cc2)C(=O)N(c2ccccc2)C1c1ccccc1` (stereo not given), for which the GI50 with A498, in the assay with A549, with ACHN, with BT-549, in the assay with HL-60 and with HOP-62 was > 10 µM (inactive) in each case. Moreover, the GI50 with KM12, in the assay on LOX IMVI, in the assay with NCI-H226, with NCI-H460, in the assay with OVCAR-5 and in the assay on PC-3 was > 10 µM (inactive) in each case. The GI50 in the assay with RPMI-8226, in the assay on RXF 393, in the assay on SF-268, in the assay with SK-OV-3 and in the assay with TK-10 was > 10 µM (inactive) throughout.
For `OC[C@H]1N[C@H](CO)[C@@H](O)[C@H]1O`, the GI50 with A498, with A549, in the assay on ACHN, in the assay with BT-549, in the assay on HL-60 and with HOP-62 was > 100 µM (inactive) throughout. Also, the GI50 with K562, in the assay on KM12, with LOX IMVI, in the assay with NCI-H226, in the assay on OVCAR-5 and in the assay on PC-3 was > 100 µM (inactive) each time. Further, the GI50 with RPMI-8226, with RXF 393, with SF-268, with SK-OV-3 and in the assay on TK-10 was > 100 µM (inactive) in each case.
For `COc1cc2nc(-c3ccccc3)cc(O)c2c(OC)c1OC`, the GI50 with A498, in the assay with A549, in the assay with ACHN, with BT-549, in the assay on HL-60 and with HOP-62 was > 100 µM (inactive) throughout. Moreover, the GI50 in the assay on K562, in the assay on KM12, in the assay with LOX IMVI, in the assay on NCI-H226, in the assay with NCI-H460 and in the assay with OVCAR-5 was > 100 µM (inactive) throughout. Moreover, the GI50 with PC-3, in the assay on RPMI-8226, in the assay on RXF 393, with SF-268, in the assay on SK-OV-3 and with TK-10 was > 100 µM (inactive) throughout.
As to `COC(=O)c1ccccc1NC(=S)NN(C)C`, the GI50 in the assay with A498, in the assay with A549, with ACHN, in the assay on BT-549, in the assay with HL-60 and in the assay on K562 was > 100 µM (inactive) in each case. Further, the GI50 in the assay with KM12, in the assay on LOX IMVI, in the assay on NCI-H226, with OVCAR-5, with PC-3 and with RPMI-8226 was > 100 µM (inactive) in each case. Also, the GI50 with RXF 393, in the assay with SK-OV-3 and in the assay with TK-10 was > 100 µM (inactive) in each case.
Regarding `CC1(C)[C@@H]2C[C@H]1C(Cc1ccccc1C[C@H]1c3cc(-c4ccccn4)ncc3[C@H]3C[C@@H]1C3(C)C)c1cc(-c3ccccn3)ncc12` (stereo not given in full), the GI50 in the assay on A498 is 0.673 µM (active); with A549, 0.371 µM (active); in the assay with ACHN, 0.204 µM (active); in the assay with BT-549, 0.716 µM (active); in the assay with HL-60 it was 0.232 µM (active); with HOP-62, 0.147 µM (active). Further, the GI50 in the assay on K562 is 0.356 µM (active); in the assay on KM12, 0.389 µM (active); in the assay with LOX IMVI it was 0.361 µM (active); in the assay with NCI-H460, 0.337 µM (active); in the assay with OVCAR-5 it was 0.791 µM (active); in the assay with PC-3, 0.47 µM (active). The GI50 was 0.348 µM (active) in the assay on RPMI-8226; 0.714 µM (active) in the assay on RXF 393; 0.292 µM (active) in the assay with SF-268; 0.518 µM (active) in the assay on SK-OV-3; 0.638 µM (active) with TK-10.
Consider `N#C/C=c1/c2ccccc2n2nc3ccccc3c12`, for which the GI50 in the assay with A498 is 13.7 µM (inactive); in the assay on A549, 30.2 µM (inactive); with ACHN it was 6.71 µM (inactive); in the assay on BT-549 it was > 100 µM (inactive); in the assay with HL-60 it was > 100 µM (inactive); in the assay on HOP-62, 17 µM (inactive). Also, the GI50 in the assay with K562 was > 100 µM (inactive); in the assay on KM12, 17.3 µM (inactive); in the assay with LOX IMVI, 8.13 µM (inactive); with NCI-H460, 8.09 µM (inactive); with OVCAR-5, 67.6 µM (inactive); with PC-3 it was 68.4 µM (inactive). The GI50 in the assay with RPMI-8226 is 7.36 µM (inactive); in the assay with RXF 393, 16.8 µM (inactive); in the assay with SF-268, 10.9 µM (inactive); in the assay on SK-OV-3, 5.65 µM (inactive); in the assay on TK-10, 8.02 µM (inactive).
`Oc1ccc2c(c1)CCc1c-2n(CCN2CCOCC2)c2ccc(O)cc12`: the GI50 in the assay with A498 was 14.9 µM (inactive); with ACHN it was 16.1 µM (inactive); in the assay with BT-549, 31.3 µM (inactive); in the assay on HL-60, 55.6 µM (inactive); in the assay on HOP-62, 43.4 µM (inactive); in the assay with K562, 41.6 µM (inactive). Moreover, the GI50 was 20.8 µM (inactive) with KM12; 41.2 µM (inactive) with LOX IMVI; 22.8 µM (inactive) with NCI-H226; 33.2 µM (inactive) with NCI-H460; 78.3 µM (inactive) with OVCAR-5; 35.3 µM (inactive) in the assay with PC-3. The GI50 is 29.1 µM (inactive) with RPMI-8226; 30.5 µM (inactive) in the assay with RXF 393; 31.8 µM (inactive) in the assay on SF-268; 46.3 µM (inactive) in the assay on SK-OV-3; 36.7 µM (inactive) in the assay on TK-10.

(Values after ChEMBL document CHEMBL1201862, “PubChem BioAssay data set” (2004).)
